Measured values as given in patent US4039574A, “13-Hydroxy-15-deoxy-prostaglandins” (American Cyanamid Company, priority 1975, dated 1977).

Tested on: basal gastric acid secretion
Experiment: Inhibition of Gastric Acid Secretion in the Acute Gastric Fistula Rat (basal gastric acid secretion)
Format: in vivo, Female Sprague-Dawley rats
Details: 10 mg./kg., vs concurrent vehicle control

Row | Compound | % inhibition of total acid output after 60 minutes (intraduodenal route) | % inhibition of total acid output after 120 minutes (intraduodenal route) | % inhibition of total acid output after 60 minutes (oral route of administration) | % inhibition of total acid output after 120 minutes (oral route of administration)
1 | CCCCCCCC(O)[C@@H]1CCC(=O)[C@H]1CCCCCCC(=O)O (relative stereo) [trans-2-(6-carboxyhexyl)-3-(1-hydroxyoctyl)cyclopentanone] | 29% | 78% |  | 
2 | CCCCCCCC(O)C1C(O)CC(=O)C1CC=CCCCC(=O)O (stereo not drawn) [2α-(6-carboxyhex-2-cis-enyl)-3β-(1-hydroxyoctyl)-4-hydroxycy] [2α-(6-carboxyhex-2-cis-enyl)-3β-(1-hydroxyoctyl)-4-hydroxycyclopentanone] | 81% | 20% |  | 
3 | CCCCCCCC(O)C1C(O)CC(=O)C1CC=CCCCC(=O)O (stereo not drawn) [2β-(6-carboxyhex-2-cis-enyl)-3β-(1-hydroxyoctyl)-4-hydroxycy] [2β-(6-carboxyhex-2-cis-enyl)-3β-(1-hydroxyoctyl)-4-hydroxycyclopentanone] | 100% | 94% | 1% | 56%
